From US11958842B2, “Substituted phenazines and methods of treating cancer and bacterial diseases” (Adjutec Pharma AS, priority 2016, dated 2024)
Like-named read-outs stand apart in the source and are kept apart here.

Experiments:
Type in all cases: cell-based
Molm13 cells = experiment: Anti-AML activity, WST-1 viability (Example 72); conditions: Homo sapiens
Experimental: Dry powder of analogs were dissolved in DMSO. IPC-18 rat AML cells (Lacaze, N. et al. Leuk. Res. 1983, 7, 145.) were cultured in DMEM medium (Sigma-Aldrich, St. Louis, Mo., USA) supplemented with 10% horse serum (Invitrogen, Carlsbad, Calif., USA), and antibiotics (50 U/mL of penicillin and 0.05 mg/mL streptomycin). Molm13 (Matsuo, Y. et al. Leukemia 1997, 11, 1469.) cells were cultured in RPMI supplemented with antibiotics (50 U/mL of penicillin and 0.05 mg/mL streptomycin) and 10% fetal bovine serum (FBS, Invitrogen, Carlsbad, Calif.) and kept in exponential growth before the experiments. Dilution series of iodinin analogs were added to medium and cell suspension added to reach a final cell concentration of 150 000 cells/ml in 0.1 mL in a 96 well tissue culture plate. […] The cells were incubated with the iodinin analogs for 22 h before WST-1 was added according to the manufacturers protocol, and the cells incubated further in 2 h. Mitochondrial conversion of WST-1 to its colored metabolite was measured by a plate reader at 450 nm, with 620 nm as the reference wavelength. The cells were next fixed by adding 4% buffered formaldehyde (PBS, pH 7.4, supplemented with 0.01 mg/mL Hoechst 33342 for nuclear visualization) to the cell suspension at 1:1 (v/v) ratio (final concentration of formaldehyde:[…]). The cells' nuclear and surface morphology were examined microscopically and results compared with the WST-1 viability assay. The results given in Table I are based on WST-1 data.

[1] = test system: human acute myeloid leukemia cell line MOLM-13; experiment: Cytotoxicity, WST-1 and nuclear morphology (Example 73)
Experimental: (§1) All cell culturing media and serum were from Sigma-Aldrich (St. Louis, Mo., USA). Product Nos. are given in parentheses. The human acute myeloid leukemia cell line MOLM-13 was cultured in RPMI medium (R5886) enriched with […] (F7524) and 0.2 mM L-glutamine (G7513). The normal rat kidney epithelial (NRK) and the rat cardiomyoblast (H9c2) cells were cultured in DMEM medium (D6429) enriched with 10% fetal bovine serum (F7524). All cell lines were additionally supplemented with 100 IU/mL penicillin and […] (P0781). The cells were cultured in a humidified atmosphere either under 2% or 20% O2 at 37° C.
(§2) All analogues were dissolved in DMSO (D5879, Sigma-Aldrich) at concentrations between 2.5 and 20 mM before testing. For cytotoxic testing, the MOLM-13 cells were seeded as 20,000 cells/well, while NRK and H9c2 cells were seeded as 5,000 cells/well in 96-well Microplates (#167008, Thermo Scientific™ Nunc™ MicroWell™) with 100 μL medium/well. The cells were exposed to various concentrations of iodinin or its analogues for 24 hrs before the cell proliferation reagent WST-1 was used to assess the viability, in accordance with the manufacturer's instructions (11644807001, Roche Diagnostics, Sigma-Aldrich). The cells were next fixed in 2% buffered formaldehyde (pH 7.4) with the DNA-specific dye Hoechst 33342 (Polysciences Inc.) and assessed for cell death by UV-microscopy based on nuclear morphology. The highest concentration of analogue corresponded to 1% of DMSO, which alone gave less than 7% cell death as judged by nuclear morphology.
(§3) EC50 values were determined by analyses of WST-1 signal results as well as microscopic evaluation of cell death by four-parameter regression analyses using the SigmaPlot software (Systat Software inc. San Jose, Calif.):
(§4) [formula] where Y is the response (WST-1 signal or percent apoptosis), min and max are minimum and maximum response, X is concentration of analogue, EC50 equals the point of inflection, i.e. the point that gives half of maximum response, and h is the Hill's slope of the curve. The two methods gave consistent response curves for each analogue. In the case of Tirapazamine, where its colour interfered with the WST-1 signal, only microscopic evaluation of Hoechst stained cells was used in order to calculate its EC50 values.

[2] = test system: normal rat kidney epithelial (NRK) cells; experiment: as above
Experimental: as §1, §2, §3, §4

[3] = test system: rat cardiomyoblast (H9c2) cells; experiment: as above; conditions: read-out: EC50 (μM) H9c2 19% O2
Experimental: as §1, §2, §3, §4

[4] = Molm 13 cells, 2% O2, 24 h of incubation, WST-1, read-out: Molm 13 IC50 2% O2
[5] = Molm 13 cells, 20% O2, 24 h of incubation, WST-1, read-out: Molm 13 IC50 20% O2
[6] = Homo sapiens, MOLM-13, 2% O2, 24 hours of incubation, read-out: EC50 (μM) MOLM-13 2% O2
[7] = Homo sapiens, MOLM-13, 19% O2, 24 hours of incubation, read-out: EC50 (μM) MOLM-13 19% O2
[8] = Rattus norvegicus, 2% O2, 24 hours of incubation, read-out: EC50 (μM) NRK 2% O2
[9] = Rattus norvegicus, 19% O2, 24 hours of incubation, read-out: EC50 (μM) NRK 19% O2
[10] = Rattus norvegicus, H9c2, 19% O2, 24 hours of incubation
[11] = Homo sapiens, MOLM-13, 24 h, read-out: EC50 (μM) MOLM-13 2% O2
[12] = Homo sapiens, MOLM-13, 24 h, read-out: EC50 (μM) MOLM-13 19% O2
[13] = MOLM-13, 2% O2, 24 hours of incubation, read-out: EC50 (μM) MOLM-13 2% O2
[14] = MOLM-13, 19% O2, 24 hours of incubation, read-out: EC50 (μM) MOLM-13 19% O2
[15] = Rattus norvegicus, 24 h, read-out: EC50 (μM) NRK 2% O2, NRK, 2% O2, 24 hours of incubation
[16] = Rattus norvegicus, 24 h, read-out: EC50 (μM) NRK 19% O2, NRK, 19% O2, 24 hours of incubation
[17] = H9c2, 19% O2, 24 hours of incubation

| Compound | EC50 [1, 6] | EC50 [1, 7] | EC50 [2, 8] | EC50 [2, 9] | EC50 [3, 10] | other results |
| --- | --- | --- | --- | --- | --- | --- |
| COc1cccc2nc3c(OC)cccc3nc12 [Example 1a, 1,6-dimethoxyphenazine] | 84 ± 6 µM | 72 ± 14 µM | – | – | – | IC50 (Molm13 cells; [4]): > 10 µM; IC50 (Molm13 cells; [5]): > 10 µM |
| [O-][n+]1c2ccccc2[n+]([O-])c2c(O)cccc21 [Example 4a, 1-hydroxyphenazine 5,10-dioxide] | – | – | – | – | – | IC50 (Molm13 cells; [5]): 4.5 µM |
| CC(=O)Oc1cccc2c1[n+]([O-])c1cccc(O)c1[n+]2[O-] [Example 5d, 1-Acetoxy-6-hydroxyphenazine 5,10-dioxide] | – | – | – | – | – | IC50 (Molm13 cells; [4]): 5.61 µM; IC50 (Molm13 cells; [5]): 5.62 µM |
| CCOC(=O)COc1cccc2c1[n+]([O-])c1cc(C)c(C)cc1[n+]2[O-] [Example 6b, 1-(2-ethoxy-2-oxoethoxy)-7,8-dimethylphenazine 5,10-dioxide] | 6.3 ± 0.25 µM | 8.3 ± 0.78 µM | > 100 µM | 140 ± 2 µM | > 100 µM | – |
| CN1CCN(C(=O)Oc2cccc3c2[n+]([O-])c2cc(Br)c(Br)cc2[n+]3[O-])CC1 [Example 8g, 7,8-dibromo-1-((4-methylpiperazine-1-carbonyl)oxy)phenazine 5,10-dioxide] | – | – | – | – | – | EC50 [1, 11]: 0.7 ± 0.04 µM; EC50 [1, 12]: 0.89 ± 0.03 µM; EC50 ([2]; read-out: EC50 (μM) NRK 2% O2, 2% O2, 24 hours of incubation): 62 ± 1.3 µM; EC50 ([2]; read-out: EC50 (μM) NRK 19% O2, 19% O2, 24 hours of incubation): 49 ± 1.8 µM; EC50 ([3]; Rattus norvegicus, H9c2, 24 h): 64 ± 9.2 µM |
| O=C(Oc1cccc2c1[n+]([O-])c1cccc(O)c1[n+]2[O-])N1CCCC1 [Example 8j, 1-hydroxy-6-((pyrrolidine-1-carbonyl)oxy)phenazine 5,10-dioxide] | – | – | – | – | – | EC50 [1, 13]: 0.79 ± 0.09 µM; EC50 [1, 14]: 0.86 ± 0.05 µM; EC50 [2, 15]: 15 ± 1 µM; EC50 [2, 16]: 9.6 ± 0.38 µM; EC50 [3, 17]: 12 ± 0.7 µM |
| Cc1c(C)[n+](O)c2c(O)cccc2[n+]1[O-] [Example 12, 5-hydroxy-2,3-dimethylquinoxaline 1,4-dioxide] | > 200 µM | > 200 µM | – | – | – | – |
| Cc1c(C)[n+]([O-])c2c(OC(=O)N3CCN(C)CC3)cccc2[n+]1[O-] [Example 13, 2,3-dimethyl-5-((4-methylpiperazine-1-carbonyl)oxy)quinoxaline 1,4-dioxide] | – | – | – | – | – | EC50 [1, 13]: > 200 µM; EC50 [1, 14]: > 200 µM |
| O=C(Oc1cccc2c1[n+]([O-])c1cccc(OC(=O)N3CCCC3)c1[n+]2[O-])N1CCCC1 [Example 16a, 1,6-bis((pyrrolidine-1-carbonyl)oxy)phenazine 5,10-dioxide] | – | – | – | – | – | IC50 (Molm13 cells; MOLM-13, 24 h, read-out: Molm 13 IC50 20% O2): 0.95 µM |
| [O-][n+]1c2ccccc2[n+]([O-])c2c(O)cccc21 [Example 17, 1-hydroxyphenazine 5,10-dioxide] | 12 ± 0.04 µM | 11 ± 1.8 µM | > 100 µM | 79 ± 4.2 µM | > 100 µM | – |
| CC(C)(C)OC(=O)COc1cccc2c1[n+]([O-])c1ccccc1[n+]2O [Example 19, 1-(2-(tert-butoxy)-2-oxoethoxy)phenazine 5,10-dioxide] | 1.9 ± 0.11 µM | 2.2 ± 0.09 µM | 25 ± 1.9 µM | 26 ± 0.7 µM | 20 ± 2.1 µM | – |
| CCN(CC)C(=O)COc1cccc2c1[n+]([O-])c1ccccc1[n+]2[O-] [Example 21, 1-(2-(diethylamino)-2-oxoethoxy)phenazine 5,10-dioxide] | 1.4 ± 0.15 µM | 1.2 ± 0.08 µM | 16 ± 1 µM | 13 ± 0.01 µM | 23 ± 0.1 µM | – |
| O=C(Oc1cccc2c1[n+]([O-])c1ccccc1[n+]2[O-])N1CCCC1 [Example 24, 1-((pyrrolidine-1-carbonyl)oxy)phenazine 5,10-dioxide] | – | – | – | – | – | EC50 [1, 13]: 1.2 ± 0.15 µM; EC50 [1, 14]: 1.5 ± 0.18 µM; EC50 [2, 15]: 21 ± 2.4 µM; EC50 [2, 16]: 18 ± 0.6 µM; EC50 [3, 17]: 13 ± 0.5 µM |
| CC(C)(C)OC(=O)COc1cccc2c1[n+]([O-])c1cccc(OCC(=O)OC(C)(C)C)c1[n+]2[O-] [Example 36, 1,6-bis(2-(tert-butoxy)-2-oxoethoxy)phenazine 5,10-dioxide] | 3.3 ± 0.22 µM | 4.2 ± 0.2 µM | 27 ± 1.8 µM | 27 ± 1.2 µM | – | – |
| O=C(O)COc1cccc2c1[n+]([O-])c1cccc(OCC(=O)O)c1[n+]2[O-] [Example 37, 1,6-bis(carboxymethoxy)phenazine 5,10-dioxide] | 39 ± 9 µM | 18 ± 3 µM | > 200 µM | > 200 µM | – | – |
| Cc1cc2c(cc1C)[n+]([O-])c1c(O)cccc1[n+]2[O-] [Example 48, 1-hydroxy-7,8-dimethylphenazine 5,10-dioxide] | 2.3 ± 0.1 µM | 2.8 ± 0.25 µM | > 50 µM | > 50 µM | > 50 µM | – |
| [O-][n+]1c2ccccc2[n+]([O-])c2cc(O)ccc21 [Example 60, 2-hydroxyphenazine 5,10-dioxide] | 45 ± 3.5 µM | 128 ± 3 µM | – | – | > 200 µM | – |
| CCOC(=O)COc1ccc2c(c1)[n+](O)c1ccccc1[n+]2O [Example 62, 2-(2-ethoxy-2-oxoethoxy)phenazine 5,10-dioxide] | 15 ± 0.7 µM | 32 ± 5 µM | – | – | 45 ± 4.8 µM | – |
| CN1CCN(C(=O)Oc2ccc3c(c2)[n+](O)c2ccccc2[n+]3O)CC1 [Example 63, 2-((4-methylpiperazine-1-carbonyl)oxy)phenazine 5,10-dioxide] | – | – | – | – | – | EC50 [1, 11]: 3.5 ± 0.19 µM; EC50 [1, 12]: 14 ± 0.4 µM; EC50 ([3]; Rattus norvegicus, H9c2, 24 h): 53 ± 0.3 µM |
| Cc1cc2c(cc1C)[n+]([O-])c1cc(O)ccc1[n+]2[O-] [Example 64, 7-hydroxy-2,3-dimethylphenazine 5,10-dioxide] | 50 ± 3.8 µM | 117 ± 1 µM | – | – | > 200 µM | – |
| Cc1cc2c(cc1C)[n+](O)c1cc(OC(=O)N3CCN(C)CC3)ccc1[n+]2[O-] [Example 65, 2,3-dimethyl-7-((4-methylpiperazine-1-carbonyl)oxy)phenazine 5,10-dioxide] | – | – | – | – | – | EC50 [1, 11]: 2.5 ± 0.24 µM; EC50 [1, 12]: 17 µM; EC50 ([3]; Rattus norvegicus, H9c2, 24 h): 20 ± 2.4 µM |
| Nc1ccc2c(c1)[n+](O)c1ccccc1[n+]2[O-] [Example 67, 2-aminophenazine 5,10-dioxide] | 7.6 ± 0.89 µM | 31 ± 1.4 µM | – | – | 80 ± 8.9 µM | – |
| Cc1c(C)[n+]([O-])c2c(OC(=O)N3CCOCC3)cccc2[n+]1[O-] [Example 69, 2,3-dimethyl-5-((morpholine-4-carbonyl)oxy)quinoxaline 1,4-dioxide] | – | – | – | – | – | EC50 [1, 13]: > 200 µM; EC50 [1, 14]: > 200 µM |
